Source: the NIST ThermoML archive (doi:10.1021/je1003466)
Values joined by “and” are separate entries in the source; they are usually repeats but may differ in a detail not shown here. Equal values may be shown once. Numbers after ± are expanded uncertainties.

Assay: mn = molality of the nth substance listed, in mol/kg
Settings: 298.15 K, 101 kPa, Liquid

CNC=O [N-methylformamide] + O
Settings	mass density
m1 = 0.1996	997.54 ± 0.31 kg/m3
m1 = 0.2	997.53 ± 0.31 kg/m3 and 997.55 ± 0.31 kg/m3
m1 = 0.3493	997.91 ± 0.31 kg/m3
m1 = 0.5018	998.28 ± 0.32 kg/m3
m1 = 0.5044	998.28 ± 0.32 kg/m3
m1 = 0.5343	998.34 ± 0.32 kg/m3
m1 = 0.9779	999.42 ± 0.34 kg/m3
m1 = 0.9919	999.46 ± 0.34 kg/m3
m1 = 1.011	999.49 ± 0.34 kg/m3
m1 = 1.499	1000.63 ± 0.37 kg/m3
m1 = 1.5	1000.62 ± 0.37 kg/m3
m1 = 1.505	1000.65 ± 0.37 kg/m3
m1 = 2.006	1001.79 ± 0.4 kg/m3
m1 = 2.011	1001.79 ± 0.4 kg/m3
m1 = 2.012	1001.79 ± 0.4 kg/m3
m1 = 2.47	1002.77 ± 0.44 kg/m3
m1 = 2.497	1002.77 ± 0.44 kg/m3
m1 = 2.513	1002.86 ± 0.44 kg/m3
m1 = 3.022	1003.9 ± 0.48 kg/m3
m1 = 3.05	1003.95 ± 0.48 kg/m3
m1 = 3.068	1004 ± 0.48 kg/m3
m1 = 3.496	1004.81 ± 0.52 kg/m3
m1 = 3.499	1004.82 ± 0.52 kg/m3 and 1004.81 ± 0.52 kg/m3
m1 = 3.989	1005.73 ± 0.57 kg/m3
m1 = 3.992	1005.74 ± 0.57 kg/m3
m1 = 3.997	1005.73 ± 0.57 kg/m3
